# Experimental data taken from the supplement of paper PMC10307832.
# Legend:
# Assay in all cases: relative viability (nuclei count vs DMSO), 5 days (fraction); higher = more cells survive
# [1] = compound: C/C(=N\NC(=S)N1CCC1)/C2=CC=CC=N2 + C[C@@H](Oc1cc(-c2cnn(C3CCNCC3)c2)cnc1N)c1c(Cl)ccc(F)c1Cl [Crizotinib] (partner 1 µM)
# Procedure, shortened: (§1)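 Relative viability equals treated-well nuclei counts divided by vehicle-well nuclei counts. Counts came from 4× images of lung cancer cell lines grown in 1536-well plates for 5 days after pin-tool dosing on the day after seeding. Dosing used one drug alone or a fixed anchor-drug dose plus five library-drug doses (not always all listed) in √10 steps, and values are medians of duplicate plates.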
# [2] = compound: C/C(=N\NC(=S)N1CCC1)/C2=CC=CC=N2 + Cc1cc(Nc2cc(N3CCN(C)CC3)nc(Sc3ccc(NC(=O)C4CC4)cc3)n2)n[nH]1 [Tozasertib] (partner 0.1 µM)
# Procedure, shortened: as §1
# [3] = compound: C/C(=N\NC(=S)N1CCC1)/C2=CC=CC=N2 + Nc1ncn([C@H]2C[C@H](O)[C@@H](CO)O2)c(=O)n1 [Decitabine] (partner 2 µM)
# Procedure, shortened: as §1
# [4] = compound: C/C(=N\NC(=S)N1CCC1)/C2=CC=CC=N2 + CS(=O)(=O)CCNCc1ccc(-c2ccc3ncnc(Nc4ccc(OCc5cccc(F)c5)c(Cl)c4)c3c2)o1 [Lapatinib] (partner 2 µM)
# Procedure, shortened: as §1
Cell Line,relative viability ([1]; first compound 0.05 µM),relative viability ([1]; first compound 0.1581 µM),relative viability ([1]; first compound 0.5 µM),relative viability ([1]; first compound 1.581 µM),relative viability ([1]; first compound 5 µM),relative viability ([2]; first compound 0.05 µM),relative viability ([2]; first compound 0.1581 µM),relative viability ([2]; first compound 0.5 µM),relative viability ([2]; first compound 1.581 µM),relative viability ([2]; first compound 5 µM),relative viability ([3]; first compound 0.05 µM),relative viability ([3]; first compound 0.1581 µM),relative viability ([3]; first compound 0.5 µM),relative viability ([3]; first compound 1.581 µM),relative viability ([3]; first compound 5 µM),relative viability ([4]; first compound 0.05 µM),relative viability ([4]; first compound 0.1581 µM),relative viability ([4]; first compound 0.5 µM),relative viability ([4]; first compound 1.581 µM),relative viability ([4]; first compound 5 µM)
NCI-H23,0.134,0.15,0.129,0.105,0.114,0.122,0.172,0.119,0.112,0.133,0.178,0.2,0.161,0.172,0.202,0.169,0.168,0.171,0.151,0.166
NCI-H322M,0.312,0.988,0.213,0.247,0.254,0.271,0.27,0.241,0.313,0.364,0.353,0.413,0.418,0.47,0.455,0.258,0.281,0.222,0.243,0.301
NCI-H358,0.13,0.157,0.14,0.102,0.144,0.0651,0.0617,0.0695,0.0742,0.0612,0.114,0.12,0.0978,0.0977,0.0971,0.233,0.247,0.244,0.193,0.199
NCI-H460,0.0177,0.0116,0.014,0.0184,0.0064,0.0816,0.0449,0.0431,0.0348,0.0095,0.0547,0.04,0.0328,0.0221,0.0138,0.0117,0.0152,0.017,0.015,0.0086
NCI-H520,0.0874,0.112,0.123,0.104,0.116,0.191,0.241,0.197,0.175,0.269,0.161,0.167,0.145,0.159,0.17,0.131,0.148,0.12,0.12,0.144
NCI-H596,0.896,0.302,0.242,0.251,0.258,0.445,0.34,0.191,0.195,0.2,0.887,0.408,0.335,0.317,0.418,0.339,0.293,0.221,0.228,0.299
NCI-H647,0.202,0.122,0.162,0.096,0.104,0.0603,0.0452,0.0549,0.0672,0.0612,0.0887,0.123,0.117,0.0803,0.0922,0.139,0.0972,0.11,0.0821,0.0828
NCI-H650,0.187,0.195,0.221,0.146,0.171,0.184,0.189,0.185,0.158,0.16,0.169,0.192,0.187,0.186,0.157,0.174,0.294,0.23,0.168,0.203
